Test system: PBMC
Assay: PBMC viability (MTS assay)
Type: cell-based, human
Conditions: MTS assay conducted simultaneously with cytokine release assays
Method: Peripheral blood mononuclear cells (PBMC) from healthy donors were isolated by Ficoll-Paque gradient centrifugation from buffy coats obtained from the National Blood Transfusion Service (Bristol, UK). For IL-1β release, 5 × 10^5 cells/ml were then stimulated with 50 ng/ml lipopolysaccharide (LPS) from Escherichia coli (Sigma-Aldrich Ltd., Poole, UK) in the presence or absence of VX-166 and incubated for 18 hours. Secretion of IL-1β into the supernatant was determined by ELISA (R&D Systems, Abingdon, UK) following the manufacturer's instructions. For IL-18 release, 7.5 × 10^5 cells/ml were stimulated with 6.25 × 10^-4% (w/v) Staphylococcus aureus cell suspension (SAC; Sigma-Aldrich Ltd., Poole, UK) in the presence or absence of VX-166 and incubated overnight. The IL-18 content in the supernatants was quantified by ELISA (Caltag-MedSystems Ltd., Buckingham, UK) following the manufacturer's instructions. In both assays PBMC viability was assessed after the 18 hours incubation time using MTS assay (Promega UK Ltd., Southampton, UK) to ensure that the reduction in cytokine release was not caused by a cytotoxic effect of the compound.

CCC(C(=O)NC(CC(=O)O)C(=O)COc1c(F)c(F)cc(F)c1F)n1cccc(NC(=O)OC)c1=O (stereo not shown) [VX-166]
cytotoxic effect in PBMC viability assay: not due to a cytotoxic effect
